≈ marks a conversion by molar mass, not a printed value.
Experiments:
S. aureus (ATCC29213) = experiment: In vitro susceptibility, broth microdilution (MIC); format: cell-based; conditions: Staphylococcus aureus; S. aureus ATCC29213; 18-24 h, 37 C; read-out: Antimicrobial activity (MIC) S. aureus ATCC29213
Outline: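 CLSI 2-fold serial broth microdilution; K. pneumoniae C238 grown in L-broth, S. aureus ATCC 29213 in Mueller Hinton broth, plates incubated 18–24 h at 37 °C. MIC taken as lowest concentration giving complete growth inhibition by OD600 versus compound-free wells, background-subtracted.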

VRE#2 (2010A) = experiment: In vitro susceptibility, broth microdilution (MIC); format: cell-based, vancomycin resistant Enterococci; conditions: VRE#2 (2010A); read-out: Antimicrobial activity (MIC) VRE#2
From the text: (§1) Epidemic methicillin resistant S. aureus (MRSA) strain sequenced at the Sanger Centre (MRSA252, NRS71) was obtained from NARSA (Network on Antimicrobial Resistance in S. aureus). Methicillin sensitive S. aureus (ATCC 29213 and 25923), methicillin resistant S. aureus (ATCC BAA-1762), and Salmonella typhimurium (ATCC BAA-185) were obtained from ATCC, The Global Bioresource Center. Acinetobacter baumannii (ATCC 19606 and ATCC 17978), Klebsiella pneumonia (C238), vancomycin resistant Enterococci #2 (2010A) (VRE#2), MRSA (USA400, MW2) and Pseudomonas aeruginosa (PA0-1) were obtained from the laboratory of Dr B. B. Finlay at the University of British Columbia (Vancouver, Canada).
(§2) The antimicrobial activities of PK inhibitor candidates were determined using the 96-well microtiter standard 2-fold serial broth microdilution method as described by CLSI (formerly NCCLS) with the various gram-positive and gram-negative bacteria species mentioned above. Bacteria from a single colony were grown, overnight in either BHI Broth (VRE), mueller hinton broth (S. aureus 29213; MRSA USA400, A. baumannii 19606, MRSA BAA-1762) or L-broth (P. aeruginosa, S. typhimurium, K. pneumonia and A. baumannii 17978). Each compound was prepared in DMSO with 2-fold serial dilutions to give a final concentration of, 0.031 to 64 μg/ml. 10 μl of the compound solution was then added, in duplicate, to either, 190 μl of cation adjusted mueller hinton broth (CAMHB) or 190 μl CAMHB containing ˜2.5×10^5 CFU/ml of bacteria (final compound concentration 0.031 to 64 μg/ml). Culture plates were incubated for 18-24 h at 37° C., and optical density at 600 nm (OD600) was measured using a Benchmark Plus™ microplate spectrophotometer (Bio-Rad™). The absorbance control values for the series containing CAMHB and inhibitor were subtracted as background from the corresponding infected wells. Minimal inhibitory concentration (MIC) was defined as the lowest concentration of test compound leading to complete inhibition of cell growth in relation to compound-free control wells as determined by optical density. Vancomycin, methicillin and ciprofloxicin were used as reference compounds. All assays were run in triplicate or duplicate. Experiments were replicated at least twice to verify reproducibility using the above conditions.

MRSA Pyk = molecular target: T1, MRSA Pyk (Staphylococcus aureus, UniProt Q6GG09); experiment: MRSA pyruvate kinase (PK) activity, continuous LDH-coupled assay; format: biochemical, methicillin resistant S. aureus (MRSA252)
T1 construct: made in house; host or cells: E. coli BL-21 (DE3)
T1 sequence (Q6GG09 whole entry): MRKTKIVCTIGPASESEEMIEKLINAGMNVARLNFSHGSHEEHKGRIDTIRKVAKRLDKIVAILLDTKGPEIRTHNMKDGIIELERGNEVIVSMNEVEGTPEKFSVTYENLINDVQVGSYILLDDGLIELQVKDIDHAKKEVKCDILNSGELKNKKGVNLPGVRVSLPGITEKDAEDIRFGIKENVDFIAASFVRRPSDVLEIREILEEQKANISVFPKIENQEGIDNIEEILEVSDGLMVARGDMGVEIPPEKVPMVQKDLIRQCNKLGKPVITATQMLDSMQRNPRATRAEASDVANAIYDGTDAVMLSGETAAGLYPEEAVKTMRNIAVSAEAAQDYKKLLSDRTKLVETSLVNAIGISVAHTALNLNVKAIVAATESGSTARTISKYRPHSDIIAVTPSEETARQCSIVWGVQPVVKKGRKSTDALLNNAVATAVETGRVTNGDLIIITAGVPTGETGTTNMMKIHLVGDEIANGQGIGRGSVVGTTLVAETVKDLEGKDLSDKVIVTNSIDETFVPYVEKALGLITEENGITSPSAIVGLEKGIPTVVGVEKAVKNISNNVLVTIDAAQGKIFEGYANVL
Outline: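 His-tagged MRSA PK (strain Sanger 252) and human PK isoforms expressed in E. coli BL-21 (DE3) and Ni-NTA purified, used at 15 nM in an LDH-coupled assay following NADH oxidation at 340 nm, 30° C, up to 5 min, ≤1% DMSO. IC50 from four-parameter variable-slope fit; Ki with PEP 2-20 mM, ADP fixed 2 mM, inhibitor 0-400 nM.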

MRSA (ATCC BAA-1762) = experiment: In vitro susceptibility, broth microdilution (MIC); format: cell-based, methicillin resistant S. aureus; conditions: Staphylococcus aureus; MRSA ATCC BAA-1762; read-out: Antimicrobial activity (MIC) MRSA ATCC BAA1762
From the text: as §1, §2

[1] = system: A. baumannii (ATCC 19606); experiment: In vitro susceptibility, broth microdilution (MIC); format: cell-based; conditions: Acinetobacter baumannii, ATCC19606; A. baumannii ATCC 19606 (values without asterisk); read-out: Antimicrobial activity (MIC) A. baumannii
From the text: as §1, §2

Row | SMILES | MIC (S. aureus (ATCC29213)) [µg/mL] | MIC (VRE#2 (2010A)) [µg/mL] | IC50 (MRSA Pyk) [nM] | MIC (MRSA (ATCC BAA-1762)) [µg/mL] | MIC [1] [µg/mL]
1 | N.O=C(O)CON=C(c1c(-c2cc3cc(Cl)ccc3[nH]2)[nH]c2cc(Br)ccc12)C(F)(F)F (racemic) [Compound 219, Ammonium 2-(((1-(6-bromo-5′-chloro-1H,1′H-[2,2′-biindol]-3-yl)-2,2,2-trifluoroethylidene)amino)oxy)acetate] | 8 | 4 | < 100 | 8 | > 64
2 | CN(C)CCON=C(c1c(-c2cc3cc(Cl)ccc3[nH]2)[nH]c2cc(Br)ccc12)C(F)(F)F (racemic) [Compound 220, 1-(6-Bromo-5′-chloro-1H,1′H-[2,2′-biindol]-3-yl)-2,2,2-trifluoroethan-1-one O-(2-(dimethylamino)ethyl)oxime] | 2 (≈ 3.79 µM) | 2 (≈ 3.79 µM) | < 100 | 2 (≈ 3.79 µM) | > 64
3 | COC(=O)C[N+](C)(C)CCON=C(c1c(-c2cc3cc(Cl)ccc3[nH]2)[nH]c2cc(Br)ccc12)C(F)(F)F (racemic) [Compound 222, N-(2-(((1-(6-Bromo-5′-chloro-1H,1′H-[2,2′-biindol]-3-yl)-2,2,2-trifluoroethylidene)amino)oxy)ethyl)-2-methoxy-N,N-dimethyl-2-oxoethan-1-aminium Bromide] | 2 | 4 | < 100 | 2 | 32
4 | CN1CCCN(CCCCNC(=O)c2c(-c3cc4cc(Cl)ccc4[nH]3)[nH]c3cc(Br)ccc23)CC1 [Compound 117, 6-Bromo-5′-chloro-N-(4-(4-methyl-1,4-diazepan-1-yl)butyl)-1H,1′H-[2,2′-biindole]-3-carboxamide] | 8 (≈ 14.4 µM) | 8 (≈ 14.4 µM) | < 100 | 8 (≈ 14.4 µM) | 32 (≈ 57.5 µM)
5 | CN1CCCN(CCCNC(=O)c2c(-c3cc4cc(Cl)ccc4[nH]3)[nH]c3cc(Br)ccc23)CC1 [Compound 118, 6-Bromo-5′-chloro-N-(3-(4-methyl-1,4-diazepan-1-yl)propyl)-1H,1′H-[2,2′-biindole]-3-carboxamide] | 16 (≈ 29.5 µM) | 8 (≈ 14.7 µM) | < 100 | 16 (≈ 29.5 µM) | 32 (≈ 58.9 µM)
6 | CN1CCCN(CCNC(=O)c2c(-c3cc4cc(Cl)ccc4[nH]3)[nH]c3cc(Br)ccc23)CC1 [Compound 119, 6-Bromo-5′-chloro-N-(2-(4-methyl-1,4-diazepan-1-yl)ethyl)-1H,1′H-[2,2′-biindole]-3-carboxamide] | 16 (≈ 30.3 µM) | 8 (≈ 15.1 µM) | < 100 | 16 (≈ 30.3 µM) | 64 (≈ 121 µM)
7 | NC(=O)N1CCCN(CCNC(=O)c2c(-c3cc4cc(Cl)ccc4[nH]3)[nH]c3cc(Br)ccc23)CC1 [Compound 128, 6-bromo-N-(2-(4-carbamoyl-1,4-diazepan-1-yl)ethyl)-5′-chloro-1H,1′H-2,2′-biindole-3-carboxamide] | > 64 | > 64 | – | – | > 64
8 | O=C(Nc1nc2cc(Br)ccc2s1)NC1CCCCC1 [Compound 159, 1-(5-bromobenzo[d]thiazol-2-yl)-3-cyclohexylurea] | 2 (≈ 5.65 µM) | – | – | 1 (≈ 2.82 µM) | > 64
9 | Nc1ccc(NC(=O)Nc2nc3cc(Br)ccc3s2)cc1 [Compound 160, 1-(4-aminophenyl)-3-(5-bromobenzo[d]thiazol-2-yl)urea] | 4 (≈ 11 µM) | 8 (≈ 22 µM) | – | 4 (≈ 11 µM) | > 64
10 | CN(C)CC(=O)Nc1ccc(NC(=O)Nc2nc3cc(Br)ccc3s2)cc1 [Compound 161, N-(4-(3-(5-bromobenzo[d]thiazol-2-yl)ureido)phenyl)-2-(dimethylamino)acetamide] | 16 (≈ 35.7 µM) | 16 (≈ 35.7 µM) | – | 8 (≈ 17.8 µM) | > 64
11 | O=C(Nc1ccc(Cl)cc1)Nc1nc2cc(F)ccc2s1 [Compound 166, 1-(4-chlorophenyl)-3-(5-fluorobenzo[d]thiazol-2-yl)urea] | 1 (≈ 3.11 µM) | 0.5 (≈ 1.55 µM) | – | 0.5 (≈ 1.55 µM) | > 64
12 | O=C(Nc1ccc(Cl)cc1)Nc1nc2cc(Oc3ccccc3)ccc2s1 [Compound 168, 1-(4-chlorophenyl)-3-(5-phenoxybenzo[d]thiazol-2-yl)urea] | 1 (≈ 2.53 µM) | 16 (≈ 40.4 µM) | – | 1 (≈ 2.53 µM) | > 64
13 | O=C(Nc1ccc(Cl)cc1)Nc1nc2cc(C(F)(F)F)ccc2s1 [Compound 169, 1-(4-chlorophenyl)-3-(5-(trifluoromethyl)benzo[d]thiazol-2-yl)urea] | 1 (≈ 2.69 µM) | 2 (≈ 5.38 µM) | – | 0.5 (≈ 1.34 µM) | > 64
14 | O=C(Nc1ccc(Cl)cc1)Nc1nc2cc(Cl)ccc2s1 [Compound 172, 1-(5-chlorobenzo[d]thiazol-2-yl)-3-(4-chlorophenyl)urea] | 0.5 (≈ 1.48 µM) | 1 (≈ 2.96 µM) | – | 0.5 (≈ 1.48 µM) | > 64
15 | CC(C)(C)NC(=O)Nc1nc2cc(Br)ccc2s1 [Compound 173, 1-(5-bromobenzo[d]thiazol-2-yl)-3-(tert-butyl)urea] | 16 (≈ 48.7 µM) | 32 (≈ 97.5 µM) | – | 16 (≈ 48.7 µM) | > 64
16 | O=C(Nc1nc2cc(Br)ccc2s1)NC1CCCCCC1 [Compound 174, 1-(5-bromobenzo[d]thiazol-2-yl)-3-cycloheptylurea] | 1 (≈ 2.72 µM) | 1 (≈ 2.72 µM) | – | 1 (≈ 2.72 µM) | > 64
17 | CCNC(=O)Nc1nc2cc(Br)ccc2s1 [Compound 176, 1-(5-bromobenzo[d]thiazol-2-yl)-3-ethylurea] | 8 (≈ 26.7 µM) | 16 (≈ 53.3 µM) | – | 8 (≈ 26.7 µM) | > 64
18 | CC(C)(C)NCCNC(=O)COc1cc2[nH]c(-c3cc4ccc(Br)cc4[nH]3)cc2cc1Cl [Compound 193, 2-((6′-Bromo-5-chloro-1H,1′H-[2,2′-biindol]-6-yl)oxy)-N-(2-(tert-butylamino)ethyl)acetamide] | > 64 | – | < 100 | – | > 64
19 | NC(=O)Cn1c(-c2cc3ccc(Br)cc3[nH]2)nc2cc(Cl)c(Cl)cc21 [Compound 215, 2-(2-(6-Bromo-1H-indol-2-yl)-5,6-dichloro-1H-benzo[d]imidazol-1-yl)acetamide] | > 64 | – | – | – | > 64
